Reference: US11939398B2, “Modified peptides for use in treating neurodegenerative disorders” (Neuro-Bio Ltd, priority 2016, dated 2024)
“Also recorded” adds a separate entry of the source. Where a SMILES comes first, the peptide text is derived from it. [ ]: non-standard residue; d: D form. Bpa = N[C@@H](Cc1ccc(C(=O)c2ccccc2)cc1)C(=O)O; Phe(4-NH2) = Nc1ccc(C[C@H](N)C(=O)O)cc1; hArg = N=C(N)NCCCC[C@H](N)C(=O)O

What was measured:
[1] = test system: PC12 cells; assay: AChE activity assay (Ellman reagent) in PC12 cells treated with T30; format: cell-based; details: combined with T30 (1 μM)
Procedure: AChE activity was measured using the Ellman reagent that measures the presence of thiol groups as a result of AChE activity. In the case of the G4 experiment, AChE (G4) activity was tested alone and also together with either NBP14 or Tri peptides. PC12 cells were plated the day before the experiment as for the cell viability assay. Cells were treated with T30 (1 μM) alone or combined with NBP14 or Tri peptide (0.5 μM). After treatment, supernatant (perfusate) of each treatment was collected and 25 μL from each condition were added to a new flat bottomed 96 well plate followed by the addition of 175 μl of Ellman reagent (Solution A: KH2PO4 139 mM and K2HPO4 79.66 mM, pH 7.0; solution B (substrate): Acetylthiocholine Iodide 11.5 mM; Solution C (Reagent): 5,5′-dithiobis(2-nitrobenzoic acid) 8 mM and NaHCO3 15 mM). The Ellman reagent was prepared as a mixture of the 3 solutions in a ratio 33(A):3(B):4(C). Absorbance measurements were taken for an interval of 60 minutes across experiments at 405 nm in a Vmax plate reader (Molecular devices, Wokingham, UK).
In each of the different cell techniques, the statistics analysis was performed with the average of the percentage values of 3 or more experiments. […]

[2] = test system: PC12 cells; assay: Calcium fluorometry (Fluo-8, PNU282987-induced calcium increase) in PC12 cells; format: cell-based; details: in conjunction with T30, PC12 cells
Procedure: PC12 cells were plated in 200 μl of Dulbecco's Modified Eagle's medium (DMEM) plus 2 mM of L-glutamine medium the day before the experiment in 96 well plates. On the day of the experiment, the Fluo-8 solution (Abcam) was prepared as described by the provider by adding 20 μl of Fluo-8 in the assay buffer that contains 9 ml of Hank's Balanced Salt Solution (HBSS) and 1 ml of pluronic F127 Plus. Subsequently, 100 μl of growth medium was removed and 100 μl of Fluo-8 solution were added. Treatments with T30 in conjunction with NBP14 or Tri peptides were added and incubated for 30 minutes in the incubator and 30 minutes room temperature. After 1 h, the plate was placed in the fluorescence plate reader (Fluostar, Optima, BMG Labtech, Ortenberg, Germany). Before reading the fluorescence, PNU282987 1 μM, an alpha7 specific agonist of the nicotinic receptors, was prepared and placed in the Fluostar injector. For each well, the reading was formed by a basal fluorescence reading followed by PNU282987 injection that induced an increase of calcium via nicotinic receptors.
In each of the different cell techniques, the statistics analysis was performed with the average of the percentage values of 3 or more experiments. Comparisons between multiple treatment groups and the same control were performed by one-way analysis of variance (ANOVA) and Tukey's post-hoc tests using GraphPAD Instat (GraphPAD software, San Diego, California). Statistical significance was taken at a p value<0.05.

[3] = test system: rat basal forebrain slices; assay: voltage-sensitive dye imaging (VSDI) on brain slices, Example 5; format: cell-based
Procedure: Male Wistar rats (14 days old) were anaesthetised using isoflurane (˜15 ml, 100% w/w). Isoflurane was applied to the cotton bed at the bottom of an anaesthetic chamber (glass box 20×15×15 cm) where rats were then placed for approximately 45 s until complete anaesthesia was reached. The hind paw of each anaesthetised rat was pinched to check for the appropriate depth of anaesthesia. Upon confirmation of anaesthesia, rats were quickly decapitated, with the brain being quickly removed and immersed in ice cold oxygenated ‘slicing’ artificial cerebrospinal fluid (aCSF in mmol: 120 NaCl, 5 KCL, 20 NaHCO3, 2.4 CaCl2 2 MgSO4, 1.2 KH2PO4, 10 glucose, 6.7 HEPES salt and 3.3 HEPES acid; pH=7.1). Coronal slices (400 μm thick) were then taken from a block of brain containing the basal forebrain, namely the MS-dBB complex (between +9.20 and +9.48 mm Interaural and +0.48 and +0.2 mm Bregma, FIG. 4A) and the somatosensory barrel field cortex (SiBF, between +8.08 and +7.20 mm Interaural and −0.92 mm and −1.80 mm Bregma) (Paxinos and Watson, 1998) using a Vibratome (Leica VTi000S).
Slices were then transferred to a bubbler pot containing oxygenated aCSF at room temperature (recording aCSF in mmol: 124 NaCl, 5 KCL, 20 NaHCO3, 2.4 CaCl2 2 MgSO4, 1.3 KH2PO4, 10 glucose; pH=7.4) which was identical to that used in VSDI (voltage sensitive dye imaging) recording. Slices were then left for approximately 1-1.5 hours before preparing them for VSD staining.
Slices were placed in a dark, high humidity chamber filled with aCSF bubbled with 95% O2, 5% CO2. Once there, the dye solution (4% 0.2 mM styryl dye pyridinium 4-[2-[6-(dibutylamino)-2-napthalenyl]-ethenyl]-1-(3-sulfopropyl)hydroxide (Di-4-NEPPS), Invitrogen, Paisley, UK in 48% aCSF, 48% foetal bovine serum, 3.5% DMSO and 0.4% cremophore EL) (Tominaga et al., 2000) was applied to the slices for 20-25 minutes before being transferred back to a bubbler pot containing oxygenated aCSF kept at room temperature for 30 minutes.
When starting the VSDI recordings, slices were placed in the recording bath on a small piece of filter paper to allow the flow of oxygenated aCSF on the underside of the slice and in order to keep it alive. The slice was then weighed down by a home-made plastic grid that was placed on top of the slice. […] For the acquisition of VSD data, 2 dimensional images, equivalent to 88×60 pixels, were recorded using the MiCamo2 High Resolution camera (Brain Vision, Japan) with BV_Analyze imaging software. […] Light was generated using an Osram halogen xenophot 64634 HLX EFR Display/Optic lamp and was filtered to emit green (530±10 nm) light using a MHF-G150LR (Moritex Corporation) coupled to the MiCamo2 High resolution imaging system and filtered the emitted fluorescence through a >590 nm high pass filter. […]

[4] = stability / degradation in rat blood; format: in vitro ADME; details: for stability in blood / degradants detected: rat blood diluted with PBS; for degradants detected: UHPLC-TOF MS
Procedure: (§1) Test compounds were spiked at 10 μg/ml into either PBS or blood (Male Wistar rat or Human) diluted with PBS, and a series of samples taken according to the following scheme:
(§2) Procaine, a compound known to be unstable in blood, was included as a positive control (ran with 5-fold diluted blood only). The sampling procedure was to add an aliquot to ice-cold acetonitrile, centrifuge, and store the supernatant on dry ice until analysis. Analysis by UHPLC-TOF mass spectrometry using electrospray ionisation was performed on the same day as the incubations were performed.

[5] = stability / degradation in human blood; format: in vitro ADME
Procedure: as §1, §2

[6] = test system: rat basal forebrain slices; assay: voltage-sensitive dye imaging (VSDI) on brain slices, Example 7; format: cell-based
Procedure: Brain slices were prepared as in Example 5.
Slices were placed in a dark, high humidity chamber filled with aCSF bubbling with 95% O2e5% CO2. Once there, the dye solution (4% 0.2 mM styryl dye pyridinium 4-[2-[6-(dibutylamino)-2-aphthalenyl]-ethenyl]-1-(3-sulfopropyl)hydroxide (Di-4-ANEPPS, Invitrogen, Paisley, UK) (Tominaga et al., 2000) in aCSF 48%, fetal bovine serum 48%, DMSO 3.5% and cremophore EL 0.4%) was applied to the slices for 20-25 min before being transferred to an aCSF bubbler pot (room temperature, 22 C+/−1.5 C) for 1 h to wash off excess dye and recover.
When starting VSD recordings, slices were placed in the recording bath on a small piece of filter paper to keep slice alive and was weighed down appropriately using a home-made plastic grid placed atop the slice. The perfusing bath solution was heated to 30+/−1 C by a stage heater. A concentric bipolar stimulating electrode (FHC, Maine, US) was placed in the ventral diagonal band of the basal forebrain with stimulation being set at 30 V. For acquiring of VSD data, 16-bit images were recorded with 1 ms resolution with a digital camera (Brain Vision MiCAM Ultima R3-V20 Master) with Ultima 2004/08 imaging software (Brain Vision) coupled to Spike 2 V6.0 (CED Ltd, Cambridge, UK) which was used to trigger stimulations with respect to appropriate ISI. […]

[7] = human blood diluted with PBS, 10 μg/ml, up to 60 min

In the case of `CSCC[C@@H]1NC(=O)[C@H](Cc2ccc(O)cc2)NC(=O)[C@H](CO)NC(=O)[C@H](CO)NC(=O)[C@H](Cc2c[nH]c3ccccc23)NC(=O)[C@H](CCCNC(=N)N)NC(=O)[C@H](Cc2c[nH]cn2)NC(=O)[C@H](Cc2ccccc2)NC(=O)[C@H](CCC(=O)O)NC(=O)[C@H](C)NC(=O)[C@H](CCCCN)NC(=O)[C@H](Cc2c[nH]c3ccccc23)NC(=O)[C@H](Cc2c[nH]cn2)NC(=O)[C@H](C(C)C)NC1=O` [NBP14, reference compound] (cyclo(AEFHRWSSYMVHWK)), the “protection against T30-induced AChE activity” value [1] was “protects against these toxic effects”, the “protection against T30-induced calcium influx” value [2] was “protects against these toxic effects” and the “blocking of T30-induced deviations from baseline (VSDI)” value ([3]; 4 μM co-perfused with T30 (2 uM)) was “totally block the T30-induced effects”. The “change in magnitude (summed fluorescence) of evoked responses, compound alone” value ([3]; 4 μM in perfusate, no T30) was “small, non-significant alterations”, the stability in blood ([4]; 10 μg/ml, up to 60 min) was “good stability” and the degradants detected [4] was “no degradants were detected”. For the same molecule, the stability in blood [5, 7] was “good stability” and the degradants detected ([5]; human blood diluted with PBS, UHPLC-TOF MS) was “no degradants were detected”.
`CCN(CC)CCOC(=O)c1ccc(N)cc1` [Procaine, reference compound] gave a turnover ([4]; 5-fold diluted rat blood, 10 μg/ml, up to 60 min) of 60% and a turnover ([5]; 5-fold diluted human blood, 10 μg/ml, up to 60 min) of 100%.
With `CC(=O)N[C@@H](Cc1ccc(C(=O)c2ccccc2)cc1)C(=O)N[C@@H](CCCCNC(=N)N)C(=O)N[C@@H](Cc1ccc(N)cc1)C(N)=O` [Tri04, 4-((S)-2-((S)-2-((S)-2-acetamido-3-(4-benzoylphenyl)propanamido)-6-((amino(iminio)methyl)amino)hexanamido)-3-amino-3-oxopropyl)benzenaminium] (Ac-[Bpa]-[hArg]-[Phe(4-NH2)]-NH2) the “protection against T30-induced calcium influx” value [2] was “protects the toxic effects of T30 by reducing calcium influx”, the “effect on T30-induced inhibition of basal forebrain activity” value ([6]; 2 μM Tri04 co-perfused with 2 μM T30, n=29) was “significant effect on basal forebrain population activity; also recorded: reversal of the inhibitory effect of T30; also recorded: increase in network activity; also recorded: protective role of Tri04 over T30” and the “effect on T30-induced inhibition of basal forebrain activity” value ([6]; 4 μM Tri04 co-perfused with 2 μM T30, n=20) was “totally block the T30-induced effects; also recorded: recapitulates results previously seen with the application of 4 μM NBP14; also recorded: significant effect reversing T30 activity”. For the same molecule, the stability in blood ([4]; 10 μg/ml, up to 60 min) was “better stability than TRI-02”, the degradants detected [4] was “some degradants were still detected” and the stability in blood [5, 7] was “better stability than TRI-02”.
